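Cells were grown in 96-well plates and exposed to each compound for 48 hours at five concentrations; endpoints were interpolated linearly between bracketing concentrations, or set to the highest concentration if not reached. TGI marks complete inhibition of growth.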 Bounds are passed on as bounds.

Test systems include SF-268 CNS; KM12 colon; OVCAR-4 ovarian; M14 melanoma; A498 renal; UACC-257 melanoma; MCF7 breast; HCT-15 colon; NCI-H226 lung; OVCAR-3 ovarian; HCC-2998 colon; OVCAR-8 ovarian; RPMI-8226 leukemia; SW-620 colon; NCI/ADR-RES ovarian; SNB-19 CNS; ACHN renal; OVCAR-5 ovarian; U251 CNS; CAKI-1 renal.
Common to all, as to assay: NCI-60 cell line screen, 48 h

On to `C=CC(Br)(CBr)CCC(Br)C(C)(C)Cl` (stereo not drawn), for which the TGI was 4.51 µM with SF-268 CNS; 3.92 µM with KM12 colon; 10.4 µM in the assay with OVCAR-4 ovarian; 14.6 µM in the assay on M14 melanoma; 9.46 µM in the assay with A498 renal; 10.6 µM in the assay with UACC-257 melanoma. Further, the TGI in the assay on MCF7 breast stood at 4.89 µM; in the assay with HCT-15 colon, 6.53 µM; with NCI-H226 lung, 52.9 µM; with OVCAR-3 ovarian it was 5.25 µM; with HCC-2998 colon it was 12.8 µM; in the assay with OVCAR-8 ovarian, 10.2 µM. Also, the TGI worked out at 2.31 µM in the assay on RPMI-8226 leukemia; 5.67 µM in the assay on SW-620 colon; 18.6 µM in the assay on NCI/ADR-RES ovarian; 4.51 µM in the assay on SNB-19 CNS; 6.07 µM with ACHN renal; 14.5 µM with OVCAR-5 ovarian. The compound also gave a TGI in the assay on U251 CNS of 2.92 µM.

Consider `O=C(Cc1nc2ncccc2[nH]c1=O)c1c[nH]c2ccccc12`, for which the TGI in the assay with SF-268 CNS was determined as 30.5 µM; in the assay with KM12 colon, 34.5 µM; in the assay on M14 melanoma, 43.1 µM; in the assay with CAKI-1 renal, 31.9 µM; in the assay on A498 renal, 31.7 µM; in the assay with UACC-257 melanoma, 36.1 µM. Moreover, the TGI in the assay with MCF7 breast turned out to be 32.3 µM; in the assay on HCT-15 colon it was 95.8 µM; in the assay on OVCAR-3 ovarian, 32.5 µM; in the assay with HCC-2998 colon, 34.6 µM; with OVCAR-8 ovarian, 81.1 µM; with RPMI-8226 leukemia it was 91.8 µM. The TGI in the assay on SW-620 colon was 40.5 µM; in the assay with NCI/ADR-RES ovarian, more than 100 µM; in the assay with SNB-19 CNS, 35.7 µM; in the assay on ACHN renal it was 30.1 µM; with OVCAR-5 ovarian, 59.2 µM; in the assay on U251 CNS, 35.1 µM.

Consider `O=C(CC(=O)N1N=C(N(c2ccccc2)c2ccccc2)CC1c1ccccc1)Nc1ccc(Cl)cc1` (stereo not drawn), for which the TGI in the assay with SF-268 CNS, in the assay with KM12 colon, in the assay on OVCAR-4 ovarian, in the assay on M14 melanoma, in the assay on CAKI-1 renal and in the assay on UACC-257 melanoma was more than 100 µM each time. Moreover, the TGI with MCF7 breast, in the assay with HCT-15 colon, with NCI-H226 lung, in the assay with OVCAR-3 ovarian, in the assay with HCC-2998 colon and with OVCAR-8 ovarian was more than 100 µM in each case. In addition, the TGI in the assay on RPMI-8226 leukemia, in the assay on SW-620 colon, with NCI/ADR-RES ovarian, in the assay on SNB-19 CNS, in the assay with ACHN renal and in the assay with OVCAR-5 ovarian was more than 100 µM each time. Moreover, the TGI with U251 CNS was more than 100 µM.

With `COc1ccc(/C=C2/NC(=S)N=C2Cl)cc1`, the TGI in the assay with SF-268 CNS, with KM12 colon, in the assay on OVCAR-4 ovarian, in the assay with M14 melanoma, with CAKI-1 renal and in the assay on A498 renal was more than 100 µM in each case. For the same compound, the TGI in the assay with UACC-257 melanoma, with MCF7 breast, with HCT-15 colon, in the assay on NCI-H226 lung, in the assay on OVCAR-3 ovarian and in the assay with OVCAR-8 ovarian was more than 100 µM each time. The TGI was more than 100 µM with RPMI-8226 leukemia; more than 100 µM with SW-620 colon; more than 100 µM in the assay on NCI/ADR-RES ovarian; more than 100 µM in the assay on SNB-19 CNS; more than 100 µM with ACHN renal; 37.9 µM in the assay with OVCAR-5 ovarian. This compound also returned a TGI in the assay on U251 CNS of more than 100 µM.

For the compound `CCN(CC)c1ccc2cc(-c3nnc(-c4ccccc4O)o3)c(=O)oc2c1`, the TGI stood at 28.3 µM with SF-268 CNS; 37.8 µM in the assay on KM12 colon; 27.5 µM in the assay with OVCAR-4 ovarian; 24.3 µM with M14 melanoma; 25.3 µM in the assay on CAKI-1 renal; 29.6 µM with A498 renal. For the same compound, the TGI was 35.1 µM with UACC-257 melanoma; more than 100 µM in the assay on MCF7 breast; 29.4 µM in the assay with HCT-15 colon; 21.1 µM in the assay with OVCAR-3 ovarian; 72.6 µM in the assay on HCC-2998 colon; 11.9 µM with OVCAR-8 ovarian. The TGI is more than 100 µM in the assay with RPMI-8226 leukemia; 26.9 µM in the assay with SW-620 colon; 44.1 µM in the assay on NCI/ADR-RES ovarian; 26.9 µM in the assay on SNB-19 CNS; 24.2 µM in the assay on ACHN renal; 35 µM in the assay with OVCAR-5 ovarian. The same compound yielded a TGI in the assay with U251 CNS of 21 µM.

On to `CCOC(=O)c1nc2ccccc2nc1Oc1cc(OC)c(OC)c(OC)c1`, for which the TGI with SF-268 CNS, in the assay on KM12 colon, in the assay on OVCAR-4 ovarian, with M14 melanoma, with CAKI-1 renal and in the assay on A498 renal was more than 100 µM throughout. The TGI with UACC-257 melanoma, with MCF7 breast, with HCT-15 colon, in the assay with OVCAR-3 ovarian, in the assay on HCC-2998 colon and in the assay with OVCAR-8 ovarian was more than 100 µM in each case. Also, the TGI with RPMI-8226 leukemia, in the assay with SW-620 colon, with NCI/ADR-RES ovarian, in the assay with SNB-19 CNS, in the assay with ACHN renal and in the assay on OVCAR-5 ovarian was more than 100 µM each time. This compound came in with a TGI in the assay with U251 CNS of 99.4 µM.

Regarding `Fc1cccc(Cl)c1C1SCc2nc3cc4ccccc4cc3n21` (stereo not drawn), the TGI in the assay on SF-268 CNS, with KM12 colon, in the assay on OVCAR-4 ovarian, with M14 melanoma, in the assay with CAKI-1 renal and in the assay with UACC-257 melanoma was more than 100 µM each time. Besides, the TGI with MCF7 breast, in the assay with HCT-15 colon, in the assay on NCI-H226 lung, with OVCAR-3 ovarian, in the assay on HCC-2998 colon and with OVCAR-8 ovarian was more than 100 µM in each case. Also, the TGI in the assay on RPMI-8226 leukemia, in the assay with SW-620 colon, in the assay with NCI/ADR-RES ovarian, in the assay on SNB-19 CNS, with ACHN renal and in the assay on OVCAR-5 ovarian was more than 100 µM each time. In the assay with U251 CNS, the TGI is more than 100 µM.

Regarding `CN(C)C=NCCN1CCOCC1`, the TGI in the assay with SF-268 CNS, in the assay with OVCAR-4 ovarian, in the assay on M14 melanoma, with A498 renal, in the assay with UACC-257 melanoma and with MCF7 breast was more than 100 µM each time. Moreover, the TGI with HCT-15 colon, in the assay with NCI-H226 lung, in the assay with OVCAR-3 ovarian, in the assay with OVCAR-8 ovarian, in the assay on RPMI-8226 leukemia and with NCI/ADR-RES ovarian was more than 100 µM each time. Moreover, the TGI in the assay with SNB-19 CNS, in the assay with ACHN renal, with OVCAR-5 ovarian and in the assay on U251 CNS was more than 100 µM in each case.

Values taken from PubChem BioAssay (NCI).
